Reference: patent publication US7994183B2, “Solid preparation comprising 2-[[6-[(3R)-3-amino-1-piperidinyl]-3,4-dihydro-3-methyl-2,4-dioxo-1(2H)-pyrimidinyl]methyl]-4-fluorobenzonitrile” (Takeda Pharmaceutical Company Limited, priority 2007, dated 2011)

Test: storage stability of compound (A) succinate alone or mixed with additive; amount of analogs by HPLC (Experimental Example 1A)
Assay type: physicochemical
Method: Comparative Examples 1A, 2A and 3A were preserved in a glass bottle with an opened cap at 40° C., 75% RH for 2 weeks, and the amount of analogs due to decomposition of compound (A) was measured, based on which the storage stability was evaluated.
The amounts of the analogs were measured by high performance liquid chromatography (HPLC) under the conditions of Table 11A. As a result, an analogue that specifically increases at relative retention time (RRT) of about 1.65 was observed.

total amount of analogs (%) (40° C./75% RH 2 wk (with opened cap), glass bottle): 0.30% | total amount of analogs (%) (initial): 0.30%
SMILES: Cn1c(=O)cc(N2CCC[C@@H](N)C2)n(Cc2cc(F)ccc2C#N)c1=O [compound (A), 2-[[6-[(3R)-3-amino-1-piperidinyl]-3,4-dihydro-3-methyl-2,4-dioxo-1(2H)-pyrimidinyl]methyl]-4-fluorobenzonitrile]
